Laboratory results taken from patent US9102719B2, “SOGA polynucleotides and polypeptides and uses thereof” (University of North Carolina at Chapel Hill, priority 2009, dated 2015).

Tests used:
SOGA = assay type: cell-based, mouse
Protocol: (§1) Mouse livers were perfused with a Krebs-Ringer-HEPES buffer containing collagenase (Sigma-Aldrich). Livers were isolated and cells were dispersed by gentle shaking and filtered through sterile nylon gauze. Cells were washed twice with sterile phosphate-buffered saline and purified by centrifugation in 50% isotonic Percoll (Sigma-Aldrich). Cells were resuspended with Krebs-Ringer-HEPES+Ca^2+ buffer to a total volume of 10 ml. Viability was validated via trypan blue exclusion and routinely exceeded 90%. Freshly isolated mouse hepatocytes were plated at 10^5 cells per well in 12-well culture plates coated with rat tail collagen I (BD Biosciences). […] SOGA siRNA, AICAR (500 μM) or […] (10 nM) were introduced to the media 48 hours before the measurement of glucose production. siRNA sequences corresponding to base pairs 333-351 and 1988-2007 on the open reading frame of murine SOGA were selected using a rational design algorithm (Invitrogen). […] Glucose was measured by colorimetric assay (Autokit Glucose CII) (Brooks et al., J. Biol. Chem. 282:35069 (2007)). Valine in the medium was measured by a UPLC (Waters) coupled TSQ-Quantum ultra triple quad mass analyzer (ThermoFinigan) in the Biomarkers Facility Core at UNC. Valine was measured in selected reaction monitoring mode (SRM) using the MS/MS transition of 118→72.

NOD mice = assay: Insulin injection in diabetic NOD mice; assay type: in vivo, mouse; details: single injection of insulin 24 hours earlier
Protocol: Mice were housed in ventilated isolator cage systems in a pathogen-free barrier facility maintained at 23° C., 55% humidity on a 12-h light/12-h dark cycle. Mice received a standard chow diet consisting of 73% carbohydrate, 18% protein, 4% fat and 5% ash (Purina). Young (3-6 month old) female C57B1/6J calorie restricted (CR) and ad libitum fed (AL) mice were maintained as previously described (Combs et al., Diabetes 52:268 (2003)). Adjustments were made to ensure that CR mice received 70% of the ad libitum food intake. Blood samples were collected at 1300 from the tail tip using heparinized capillary tubes (Fisher) and stored at −20° C. Male ob/ob mice (FVB background strain) received a daily dose of pioglitazone at 0.6 mg/kg BW in 0.025% (w/w) carboxymethylcellulose by oral gavage for 4 days. Control mice received carboxymethylcellulose by oral gavage for 4 days. Blood was collected from the tail tip on day 5 and analyzed for glucose, adiponectin and 25 kDa SOGA. Immediately after the collection of blood samples, ob/ob mice were sacrificed by cervical dislocation for tissue collection. Northern blot analysis for SOGA mRNA and 18S RNA was performed using 20 μg of liver RNA. NOD mice were bred and housed as previously described (Wong et al., J. Immunol. 176:1637 (2006)). […] Glucose was measured by colorimetric assay. Adiponectin and SOGA were measured by SDS-PAGE analysis using 1 μl of plasma. […]

ob/ob mice = assay: Pioglitazone treatment of diabetic ob/ob mice; assay type: in vivo, mouse; details: after 4 days of treatment
Protocol: Mice were housed in ventilated isolator cage systems in a pathogen-free barrier facility maintained at 23° C., 55% humidity on a 12-h light/12-h dark cycle. Mice received a standard chow diet consisting of 73% carbohydrate, 18% protein, 4% fat and 5% ash (Purina). Young (3-6 month old) female C57B1/6J calorie restricted (CR) and ad libitum fed (AL) mice were maintained as previously described (Combs et al., Diabetes 52:268 (2003)). Adjustments were made to ensure that CR mice received 70% of the ad libitum food intake. Blood samples were collected at 1300 from the tail tip using heparinized capillary tubes (Fisher) and stored at −20° C. Male ob/ob mice (FVB background strain) received a daily dose of pioglitazone at 0.6 mg/kg BW in 0.025% (w/w) carboxymethylcellulose by oral gavage for 4 days. Control mice received carboxymethylcellulose by oral gavage for 4 days. Blood was collected from the tail tip on day 5 and analyzed for glucose, adiponectin and 25 kDa SOGA. Immediately after the collection of blood samples, ob/ob mice were sacrificed by cervical dislocation for tissue collection. Northern blot analysis for SOGA mRNA and 18S RNA was performed using 20 μg of liver RNA. NOD mice were bred and housed as previously described (Wong et al., J. Immunol. 176:1637 (2006)). Where indicated, diabetic NOD mice were injected with 5 units of insulin (NPH Human Insulin, Isophane Suspension; 100 U/ml Novolin; Novo Nordisk) 24 hours prior to blood collection. Adiponectin transgenic mice were produced as previously described (Combs et al., Endocrinology 145:367 (2004)). Glucose was measured by colorimetric assay. Adiponectin and SOGA were measured by SDS-PAGE analysis using 1 μl of plasma. […] Experimental procedures were approved by IACUC.

[1] = tested on: primary murine hepatocytes; assay: Hepatocyte glucose production (colorimetric assay); assay type: cell-based, mouse; details: adiponectin exposure (adipocyte conditioned media)
Protocol: as §1

`NC(=O)c1ncn([C@@H]2O[C@H](CO)[C@@H](O)[C@H]2O)c1N` [AICAR, N1-(β-D-ribofuranosyl)-5-aminoimidazole-4-carboxamide] was tested. Which “effect on SOGA level (intracellular and extracellular)” value (SOGA; 500 μM AICAR, with or without adiponectin, n=4 per group) did it give?
The value was “decrease in SOGA that was blocked by adiponectin exposure”.

“insulin: NPH Human Insulin, Isophane Suspension (Novolin; Novo Nordisk)” was tested. Which “induction of SOGA (circulating 25 kDa SOGA)” value (NOD mice) did it give?
Its value is 2 fold.

With `CCc1ccc(CCOc2ccc(CC3SC(=O)NC3=O)cc2)nc1` (centres unmarked) [Pioglitazone, pioglitazone] as the molecule, how does the “concentration of plasma glucose” value (ob/ob mice; untreated ob/ob mice 450±18 mg/dl, p<0.05) read?
Its value is 155 ± 8 mg/dL.

And the “elevation of circulating adiponectin” value (ob/ob mice; daily oral gavage)?
Its value is 3 fold.

And the “increase of SOGA mRNA in the liver” value (ob/ob mice; daily oral gavage, SOGA mRNA/18S RNA)?
The value was 40%.

What about the “elevation of circulating SOGA” value (ob/ob mice; daily oral gavage, plasma 25 kDa SOGA) of the same molecule?
The value was 3 fold.

B1: Adiponectin: hormone provided from adipocyte conditioned media with or without adiponectin (protein, UniProt Q15848 19-244, looked up)
Adiponectin: ETTTQGPGVLLPLPKGACTGWMAGIPGHPGHNGAPGRDGRDGTPGEKGEKGDPGLIGPKGDIGETGVPGAEGPRGFPGIQGRKGEPGEGAYVYRSAFSVGLETYVTIPNMPIRFTKIFYNQQNHYDGSTGKFHCNIPGLYYFAYHITVYMKDVKVSLFKKDKAMLFTYDQYQENNVDQASGSVLLHLEVGDQVWLQVYGEGERNGLYADNDNDSTFTGFLLYHDTN
modifications: in adipocyte conditioned media
What does the source list for B1?
increase of SOGA in primary hepatocytes (SOGA): 40%; reduction in glucose production [1]: 50%
